Laboratory results as given in ChEMBL document CHEMBL6127019, “Exploitation of the nitro- and/or 4-Trifluoromethyl-decorated phenyl fragment to develop small inhibitors of Alpha-Syn fibril aggregation” (Bioorg Med Chem Lett, 2024).
Calls of active or inactive are those of the source. The rule behind the calls is not given here.

What follows are molecules tested against Alpha-synuclein (Homo sapiens) (UniProt P37840) (assay: Inhibition of alpha alpha-synuclein (unknown origin) fibril aggregation assessed as reduction in TH-T fluorescent signal at 100 uM measured after 5 to 40 hrs by ThT fluorescence assay relative to control). Details: time 5-40 hrs.

SMILES | inhibition [%]
O=[N+]([O-])c1cc(C(F)(F)F)cc([N+](=O)[O-])c1Nc1cccc(O)c1 | 68
O=[N+]([O-])c1cc(C(F)(F)F)cc([N+](=O)[O-])c1F | 57

Each molecule was assayed against Alpha-synuclein (Homo sapiens) (UniProt P37840) (assay: Inhibition of alpha alpha-synuclein (unknown origin) fibril aggregation assessed as reduction in TH-T fluorescent signal at 100 uM measured after 5 to 40 hrs by ThT fluorescence assay). Details: time 5-40 hrs.

inhibition | SMILES
inactive | Cc1cc(C)c(Nc2c([N+](=O)[O-])cc(C(F)(F)F)cc2[N+](=O)[O-])c(C)c1
inactive | COc1cccc(Nc2c([N+](=O)[O-])cc(C(F)(F)F)cc2[N+](=O)[O-])c1
inactive | O=[N+]([O-])c1cc([N+](=O)[O-])c(Nc2ccccc2)c(C(F)(F)F)c1
inactive | O=C(COc1ccccc1)Nc1c([N+](=O)[O-])cc(C(F)(F)F)cc1[N+](=O)[O-]
inactive | Cc1cccc(N2CCC(Nc3c([N+](=O)[O-])cc(C(F)(F)F)cc3[N+](=O)[O-])=N2)c1
inactive | O=[N+]([O-])c1cc(C(F)(F)F)cc([N+](=O)[O-])c1Nc1ccc(F)cc1
inactive | O=[N+]([O-])c1cc(C(F)(F)F)cc([N+](=O)[O-])c1NCCCO
inactive | Cc1cc(C)nc(Sc2c([N+](=O)[O-])cc(C(F)(F)F)cc2[N+](=O)[O-])n1
inactive | O=[N+]([O-])c1cc(C(F)(F)F)cc([N+](=O)[O-])c1NC1=NN(c2ccccc2)CC1

Second part, the molecule before the results:

SMILES | inhibition
Cn1nnnc1SCc1ccccc1[N+](=O)[O-] | inactive
O=C(O)CSCc1ccc(C(F)(F)F)cc1 | inactive
N#Cc1c(C(F)(F)F)c([N+](=O)[O-])c(-c2cccc([N+](=O)[O-])c2)[nH]c1=O | Active
Cn1nnnc1SCc1ccc(C(F)(F)F)cc1 | inactive
Cn1cnnc1SCc1ccc(C(F)(F)F)cc1 | inactive
Cn1nnnc1Sc1c([N+](=O)[O-])cc(C(F)(F)F)cc1[N+](=O)[O-] | Active
O=[N+]([O-])c1cc(C(F)(F)F)cc([N+](=O)[O-])c1N1CCN(CCO)CC1 | inactive
O=[N+]([O-])c1cc(C(F)(F)F)cc([N+](=O)[O-])c1N1CCN(c2ncnc3ccccc23)CC1 | inactive
O=[N+]([O-])c1cc(C(F)(F)F)cc([N+](=O)[O-])c1Sc1c(Cl)c(Cl)nc(Cl)c1Cl | inactive
